Measurements from patent publication US8329390B2, “Detection of transmembrane potentials using N,N,N′-trialkyl thiobarbituric acid-derived polymethine oxonols” (priority 2004, dated 2012).

Assay: Absorption and fluorescence spectral properties
Type: physicochemical
Source text: For all the syntheses, all starting materials and reagents were of the highest purity available (Aldrich Chemical Company, Milwaukee, Wis.) and used without further purification, except where noted. Solvents were HPLC grade (Fisher Scientific, Pittsburgh, Pa.) and were dried over activated molecular sieves. NMR spectra were acquired on a Varian Gemini 200 MHz spectrometer. Absorption and fluorescence spectra were taken respectively on a Cary 50 BIO and Varain Eclipse (Varian, Inc., Palo Alto, Calif.).

CN1C(=O)C(=C/C=C/c2c(O)[nH]c(=S)n(C)c2=O)C(=O)N(C)C1=S [Compound 4]
absorption maximum: 532 nm
emission maximum: 555 nm
ext. coefficient (at 532 nm): 175,000 M^−1 cm^−1
quantum yield (in octanol): > 0.2
